Assay results published in patent US20250281554A1, “COMPOSITION FOR IMPROVING DRUG SENSITIVITY OF ANTIBACTERIAL DRUG TO METHICILLIN-RESISTANT STAPHYLOCOCCUS AUREUS (MRSA), COMPOSITION FOR TREATING OR PREVENTING MRSA INFECTION, AND COMPOSITION FOR REDUCING VIRULENCE OF MRSA” (priority 2021, published 2025).
Converted amounts (≈) assume the structure as drawn.

Experiments:
Type in all cases: cell-based, methicillin-resistant Staphylococcus aureus
[1] = tested on: wild-type strain (MRSA2007-13 strain); assay: drug sensitivity test (disk method), wild-type strain; conditions: MRSA2007-13 WT, 37° C., 24 hours; for drug sensitivity rating (disk method), WT: Mueller-Hinton II agar; for diameter of inhibitory zone, WT: number in brackets; for drug sensitivity rating (disk method), WT: key: resistance (R); sensitivity(S)
Protocol: (§1) The drug sensitivities of a wild-type strain (MRSA2007-13 strain) and a mutant (SAm1-201) to β-lactam antibacterial drugs were measured in a drug sensitivity test (disk method). The test method will be explained. The wild-type strain (MRSA2007-13 strain) or the mutant (SAm1-201) was streaked on LB-Agar, and cultured at 37° C. overnight. The following day, single colonies were collected, added to 5 mL of Trypticase soy broth, and subjected to shaking culture at 37° C. overnight. After culturing, the bacterial solution was adjusted to McFarland turbidity No. 0.5, and evenly smeared on Mueller-Hinton II agar medium with a sterile cotton swab. After disposing sensitivity disks on the agar medium, culture was performed at 37° C. for 24 hours, and the diameter of an inhibitory zone formed around each disk was measured in millimeters.

[2] = tested on: mutant (SAm1-201) of MRSA2007-13; assay: drug sensitivity test (disk method), mutant SAm1-201; conditions: MRSA2007-13 SAm1-201, 37° C., 24 hours; for drug sensitivity rating (disk method), SAm1-201: Mueller-Hinton II agar; for diameter of inhibitory zone, SAm1-201: number in brackets; for drug sensitivity rating (disk method), SAm1-201: key: resistance (R); sensitivity(S)
Protocol: as §1

[3] = tested on: MRSA2007-13 SAm1-210 (mgrA mutation and femA mutation); assay: drug sensitivity test (MIC method), SAm1-210; conditions: dry plate, cultured 20 hours, unit assumed
Protocol: (§2) Next, the drug sensitivities of a wild-type strain (MRSA2007-13 strain) and mutated strains having a mutation in both mgrA and femA (SAm1-201, SAm1-206, SAm1-210) to antibacterial drugs were measured in a drug sensitivity test (MIC method). The test method will be explained. A bacterial solution (a wild-type strain or a mutant) precultured overnight was diluted with sterile physiological saline to reach OD600≈0.26, and 25 μL of the bacterial solution was added to 12 mL of Mueller-Hinton liquid medium (Eiken Chemical Co., Ltd.). To each well of a dry plate (Eiken Chemical Co., Ltd.), […] of the bacterial solution was added, and cultured for 20 hours. After culturing, the MIC was determined based on determination criteria for the dry plate.

[4] = tested on: MRSA2007-13 SAm1-206 (mgrA mutation and femA mutation); assay: drug sensitivity test (MIC method), SAm1-206; conditions: dry plate, cultured 20 hours, unit assumed
Protocol: as §2

[5] = tested on: wild-type strain (MRSA2007-13 strain); assay: drug sensitivity test (MIC method), wild-type strain; conditions: MRSA2007-13 WT; for MIC, WT: dry plate, cultured 20 hours, in µg/mL (unit assumed); for drug sensitivity rating (MIC method), WT: key: resistance (R); sensitivity(S)
Protocol: as §2

[6] = tested on: MRSA2007-13 SAm1-201 (mgrA mutation and femA mutation); assay: drug sensitivity test (MIC method), SAm1-201; conditions: for MIC, SAm1-201: dry plate, cultured 20 hours
Protocol: as §2

[7] = tested on: wild-type strain (MRSA2007-13 strain); assay: growth-inhibitory effect of phage and oxacillin added from the beginning, turbidimetry; conditions: WT MRSA, ϕSA012 ≈1.0×10^7 pfu/mL (MOI≈0.1), oxacillin sodium 16 μg/mL, 37° C.
Protocol: The test method is shown in the following. This test was performed by means of turbidimetry. A bacterial solution (wild-type strain (MRSA2007-13 strain)) precultured overnight was diluted with LB-Broth to reach OD600≈1.0, and further 10-fold diluted (˜ 1.0×10^8 cfu/mL).
The plate was set in a Sunrise Rainbow Thermo RC (Tecan Japan Co., Ltd.), and shaking culture was performed at 37° C. for 90 hours while absorbance values at a wavelength of 590 nm were measured every 15 minutes.

For COCC1=C(C(=O)O)N2C(=O)[C@@H](NC(=O)/C(=N\OC)c3csc(N)n3)[C@H]2SC1 [CPDX, cefpodoxime], the “drug sensitivity rating (disk method), WT” value [1] was “R”, the “drug sensitivity rating (disk method), SAm1-201” value [2] was “S” and the “diameter of inhibitory zone, SAm1-201” value [2] was 28 millimeters.
CCN1CCN(c2cc3c(cc2F)c(=O)c(C(=O)O)cn3C2CC2)CC1 [ERFX, enrofloxacin] was tested, and the MIC, SAm1-210 [3] was 32 µg/mL (≈ 89 µM), the MIC, SAm1-206 [4] was 64 µg/mL (≈ 178 µM) and the “MIC, WT” value [5] was 128. The MIC, SAm1-201 ([6]; unit assumed) was 64 µg/mL (≈ 178 µM).
With C[C@@H](O)[C@H]1C(=O)N2C(C(=O)O)=C(S[C@@H]3CN[C@H](C(=O)N(C)C)C3)[C@H](C)[C@H]12 [MEPE, meropenem] the “drug sensitivity rating (disk method), WT” value [1] was “R”, the “diameter of inhibitory zone, WT” value [1] was 7 millimeters and the MIC, SAm1-210 [3] was 0.125 µg/mL (≈ 0.326 µM). For the same compound, the MIC, SAm1-206 [4] was 4 µg/mL (≈ 10.4 µM), the “MIC, WT” value [5] was 32 and the “drug sensitivity rating (disk method), SAm1-201” value [2] was “S”. For the same compound, the “diameter of inhibitory zone, SAm1-201” value [2] was 28 millimeters and the “MIC, SAm1-201” value [6] was 0.125>.
With C[C@H]1c2cccc(O)c2C(=O)C2=C(O)[C@]3(O)C(=O)C(C(N)=O)=C(O)[C@@H](N(C)C)[C@@H]3[C@@H](O)[C@@H]21 [DOXY, doxycycline] the MIC, SAm1-210 [3] was 4 µg/mL (≈ 9 µM), the MIC, SAm1-206 [4] was 8 µg/mL (≈ 18 µM) and the “MIC, WT” value [5] was 8. It also gave an MIC, SAm1-201 ([6]; unit assumed) of 4 µg/mL (≈ 9 µM).
For C[C@@H](O)[C@H]1C(=O)N2C(C(=O)O)=C([C@H]3CCCO3)S[C@H]12 [FRPM, faropenem], the “drug sensitivity rating (disk method), WT” value [1] was “R”, the MIC, SAm1-210 [3] was 0.125 µg/mL (≈ 0.438 µM) and the MIC, SAm1-206 [4] was 0.25 µg/mL (≈ 0.876 µM). The “MIC, WT” value [5] was >128, the “drug sensitivity rating (disk method), SAm1-201” value [2] was “S” and the “diameter of inhibitory zone, SAm1-201” value [2] was ≥ 50 millimeters. The “MIC, SAm1-201” value [6] was 0.125>.
With C[C@@H](O)[C@H]1C(=O)N2C(C(=O)O)=C(SCCN=CN)C[C@H]12 [IPM, imipenem] the “drug sensitivity rating (disk method), WT” value [1] was “R”, the “diameter of inhibitory zone, WT” value [1] was 9 millimeters and the MIC, SAm1-210 [3] was 0.125 µg/mL (≈ 0.418 µM). The MIC, SAm1-206 [4] was 1 µg/mL (≈ 3.34 µM), the “MIC, WT” value [5] was 64 and the “drug sensitivity rating (disk method), SAm1-201” value [2] was “S”. For the same compound, the “diameter of inhibitory zone, SAm1-201” value [2] was 44 millimeters and the “MIC, SAm1-201” value [6] was 0.125>.
In the case of CC1=C(C(=O)O)N2C(=O)[C@@H](NC(=O)[C@H](N)c3ccccc3)[C@H]2SC1 [CEX, cephalexin], the “drug sensitivity rating (disk method), WT” value [1] is reported as “R”, the “drug sensitivity rating (disk method), SAm1-201” value [2] is reported as “S” and the “diameter of inhibitory zone, SAm1-201” value [2] is reported as 29 millimeters.
For penicillin [PCG], the MIC, SAm1-210 [3] was 4 µg/mL, the MIC, SAm1-206 [4] was 2 µg/mL and the “MIC, WT” value [5] was >16. It also gave an MIC, SAm1-201 ([6]; unit assumed) of 2 µg/mL.
In the case of Cc1onc(-c2ccccc2)c1C(=O)N[C@@H]1C(=O)N2[C@@H]1SC(C)(C)[C@@H]2C(=O)O [MPIPC, oxacillin], the “drug sensitivity rating (disk method), WT” value [1] is reported as “R”, the MIC, SAm1-210 [3] is reported as 0.125 µg/mL (≈ 0.311 µM) and the MIC, SAm1-206 [4] is reported as 4 µg/mL (≈ 9.96 µM). The “drug sensitivity rating (disk method), SAm1-201” value [2] was “S”, the “diameter of inhibitory zone, SAm1-201” value [2] was 35 millimeters and the “bacterial growth inhibition (turbidity) over 90 hours” value [7] was “failed in inhibiting bacterial growth”. The MIC, SAm1-201 ([6]; unit assumed) was 0.125 µg/mL (≈ 0.311 µM).
CC1(C)S[C@@H]2[C@H](NC(=O)[C@H](N)c3ccc(O)cc3)C(=O)N2[C@H]1C(=O)O [AMPC, amoxicillin] was tested, and the “drug sensitivity rating (disk method), WT” value [1] was “R”, the MIC, SAm1-210 [3] was 2 µg/mL (≈ 5.47 µM) and the MIC, SAm1-206 [4] was 16 µg/mL (≈ 43.8 µM). For the same compound, the “MIC, WT” value [5] was 64, the “drug sensitivity rating (disk method), SAm1-201” value [2] was “S” and the “diameter of inhibitory zone, SAm1-201” value [2] was 34 millimeters. The MIC, SAm1-201 ([6]; unit assumed) was 8 µg/mL (≈ 21.9 µM).
For Cc1nnc(SCC2=C(C(=O)O)N3C(=O)[C@@H](NC(=O)Cn4cnnn4)[C@H]3SC2)s1 [CEZ, cefazolin], the MIC, SAm1-210 [3] was 0.25 µg/mL (≈ 0.55 µM), the MIC, SAm1-206 [4] was 1 µg/mL (≈ 2.2 µM) and the “MIC, WT” value [5] was >128. The “drug sensitivity rating (MIC method), WT” value ([5]; symbol in brackets) was “(R)” and the “drug sensitivity rating (MIC method), SAm1-201” value ([6]; symbol in brackets) was “(S)”.
In the case of CN(C)[C@@H]1C(O)=C(C(N)=O)C(=O)[C@@]2(O)C(O)=C3C(=O)c4c(O)cccc4[C@@](C)(O)[C@H]3[C@H](O)[C@@H]12 [OTC, oxytetracycline], the MIC, SAm1-210 [3] is reported as 128 µg/mL (≈ 278 µM), the MIC, SAm1-206 [4] is reported as 128 µg/mL (≈ 278 µM) and the “MIC, WT” value [5] is reported as 128. The MIC, SAm1-201 ([6]; unit assumed) was 64 µg/mL (≈ 139 µM).
For CC/C=C(\C(=O)N[C@@H]1C(=O)N2C(C(=O)O)=C(COC(N)=O)CS[C@H]12)c1csc(N)n1 [CFPN, cefcapene], the MIC, SAm1-210 [3] was < 0.5 µg/mL, the MIC, SAm1-206 [4] was < 0.5 µg/mL and the “MIC, WT” value [5] was >2. The MIC, SAm1-201 ([6]; unit assumed) was < 0.5 µg/mL.
With CO/N=C(\C(=O)N[C@@H]1C(=O)N2C(C(=O)O)=C(/C=C\c3scnc3C)CS[C@H]12)c1csc(N)n1 [CDTR, cefditoren] the MIC, SAm1-210 [3] was < 0.5 µg/mL, the MIC, SAm1-206 [4] was < 0.5 µg/mL and the “MIC, WT” value [5] was >2. For the same compound, the MIC, SAm1-201 ([6]; unit assumed) was < 0.5 µg/mL.
